Results from patent publication US20110098288A1, “SULFONAMIDES AS ZAP-70 INHIBITORS” (priority 2008, published 2011).
pIC50: −log10 of the molar value. Counter-ions that a name gives are not always drawn.

What was measured:
ZAP-70 = target: T1, ZAP-70 (Homo sapiens, UniProt P43403); experiment: ZAP-70 kinobeads assay; format: binding; details: competition with immobilized aminopyrido-pyrimidine ligand 24 in cell lysate; ZAP-70 detected by dot blot
T1 construct: endogenous in cells; host or cells: cell lysate
T1 sequence (P43403 1-619): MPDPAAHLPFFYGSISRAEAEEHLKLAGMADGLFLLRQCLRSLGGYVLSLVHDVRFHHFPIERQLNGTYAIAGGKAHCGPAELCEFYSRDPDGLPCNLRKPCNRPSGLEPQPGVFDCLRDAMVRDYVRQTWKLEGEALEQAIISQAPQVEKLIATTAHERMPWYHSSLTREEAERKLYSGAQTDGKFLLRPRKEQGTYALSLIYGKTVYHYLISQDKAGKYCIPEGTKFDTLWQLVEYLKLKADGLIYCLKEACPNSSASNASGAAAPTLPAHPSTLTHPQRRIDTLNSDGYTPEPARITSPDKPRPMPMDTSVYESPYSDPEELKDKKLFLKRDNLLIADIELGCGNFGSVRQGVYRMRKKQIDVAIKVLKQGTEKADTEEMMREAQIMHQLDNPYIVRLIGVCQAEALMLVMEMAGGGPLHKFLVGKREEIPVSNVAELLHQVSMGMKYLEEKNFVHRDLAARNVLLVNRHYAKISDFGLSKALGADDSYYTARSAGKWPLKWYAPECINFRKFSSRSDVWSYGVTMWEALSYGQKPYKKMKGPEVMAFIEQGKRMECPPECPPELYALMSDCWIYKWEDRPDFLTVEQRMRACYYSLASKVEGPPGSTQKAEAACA
Summary of the method: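 Cell lysate aliquots incubated with test compounds at various concentrations plus affinity beads carrying immobilized aminopyrido-pyrimidine ligand 24. Bead-captured proteins eluted; ZAP-70 quantified by specific antibody dot blot with infrared detection.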

Jurkat cells = experiment: Calcium release assay (Fluo-4 flow cytometry after anti-CD3 stimulation); format: cell-based; details: Homo sapiens, Jurkat cell line J77, anti-CD3 activation, read-out: IC50 (Calcium ion release in cells)
Protocol: Compounds of the present invention were tested in a Calcium release assay as described below.
The development of fluorescent probes makes it possible to measure the concentration of intracellular free Calcium ions in single living cells. Cells are first loaded with a cell-permeable Ca^2+-sensitive dye, then the test compound is added. Finally, cells are activated through the T cell receptor with an anti-CD3 antibody shortly before data acquisition on the flow cytometer. The release of Ca^2+ is measured as a function of time after cell stimulation. This protocol describes the flow cytometry method using the Fluo-3 and Fluo-4 dyes (Minta et al., 1989, J. Biol. Chem. 264(14):8171-8178) to measure the intracellular Ca^2+ concentration in Jurkat cells (see also June et al., 1997, Measurement of intracellular calcium ions by flow cytometry. In: Current Protocols in Cytometry (1997) Unit 9.8.1-9.8.19, John Wiley & Sons, Inc.).
In general, cells should be handled in the shortest time possible to assure their stability. Therefore the preparation of all materials in advance is highly recommended as well as using any incubation or centrifugation time to prepare the next steps (e.g. preparing compound dilution or starting the flow cytometer).
1) Prepare a work plan indicating the number of samples to be analyzed including controls. 2) Cell harvest: Centrifuge 50 to 100 ml of a Jurkat cell culture for 5 minutes at 1100 rpm. Discard the supernatant, pool the resuspended cell pellets in a single 50 ml Falcon tube, and fill up to 50 ml with PBS—CaCl2 (without FCS). Centrifuge again sample again. 3) Resuspend cell pellet with PBS—CaCl2 (without FCS) to achieve a concentration not lower than 10×10^6 cells/ml. Prepare an adequate dilution to evaluate the cell concentration and count the cells. 4) Separate the volume of cells needed to be loaded (for example […] for 20 samples) in a 50 ml Falcon tube. Fill up with PBS—CaCl2 to 900 μl for 107 cells. 5) Prepare in the dark a 1:1 mix of FLUO-4 (1 mM)+Pluronic F-127 (20%). 5 μl of Fluo-4 are needed per 107 cells. 6) Prepare a 1/10 dilution of this mix with PBS—CaCl2 (in the dark; for example 5 μl Fluo-4+5 μl F-127 completed to 100 μl). 7) Add the dye solution to the cells. […] 8) Incubate the sample for 30 minutes in a cell incubator (37° C., 5% CO2). Mix from time to time. 9) During this time prepare the adequate test compound dilution in PBS—CaCl2 (with 10% FCS). The solution should be 10 times more concentrated than the desired final concentration. Vortex each dilution. Prepare also the antibody dilutions: anti-CD3 (1/200) and GAM (1/25). 10) Label FACS tubes and distribute in the corresponding tube 30 μl of the compound dilution or only buffer for the control tubes. 11) After 30 minutes of incubation wash the cells twice in PBS—CaCl2 (with 10% FCS). During the washing steps make sure that the flow cytometer is already “ON” in order to warm the laser. 12) Resuspend the cell pellet in PBS—CaCl2 (with 10% FCS) at a concentration of 1.5×10^6 cells/ml. 13) Distribute 300 μl of cell suspension into the FACS tubes and mix gently. The compound incubation is starting. Keep samples at room temperature in the dark. 14) Open the settings of the cytometer. It is advised to have a template ready which is used for all measurements. Settings of the machine should also be the same from one experiment to the other which permits to evaluate the reproducibility of the cell preparation. 15) In Setup modus control your cell preparation on the cytometer. Cells should fit in the pre-defined gates. 16) During the compound incubation time, check also that cells are responding to the anti-CD3 activation as expected. Set a timer at 8 sec. Add 6 μl of anti-CD3 dilution (0.2 μg/ml final) and mix gently. Add 1 μl of GAM dilution (0.75 μg/ml final) and mix gently. Incubate the samples in water bath at 37° C. while starting timer. After 8 seconds of incubation, acquire data at medium speed for 200 seconds. […]

pIC50 (ZAP-70) | pIC50 (Jurkat cells) | SMILES
5.00 to 6.00 | 6.00 to 7.00 | CS(=O)(=O)Nc1ccccc1Nc1nc(Nc2ccc3c(c2)OCCO3)ncc1F [Example 4, N-(2-(2-(2,3-dihydrobenzo[b][1,4]dioxin-6-ylamino)-5-fluoropyrimidin-4-ylamino)phenyl)methanesulfonamide]
> 7.00 | 6.00 to 7.00 | CCc1cccc(Nc2nc(Nc3cc(OC)c(OC)c(OC)c3)ncc2F)c1NS(C)(=O)=O [Example 169, N-(2-ethyl-6-(5-fluoro-2-(3,4,5-trimethoxyphenylamino)pyrimidin-4-ylamino)phenyl)methanesulfonamide]
5.00 to 6.00 | 6.00 to 7.00 | Cc1cc(C)cc(Nc2ncc(F)c(Nc3ccccc3N(C)S(C)(=O)=O)n2)c1 [Example 72, N-(2-(2-(3,5-dimethylphenylamino)-5-fluoropyrimidin-4-ylamino)phenyl)-N-methylmethanesulfonamide]
> 7.00 | 6.00 to 7.00 | CN1CCCC(COc2cccc(Nc3ncc(F)c(Nc4ccccc4NS(C)(=O)=O)n3)c2)C1 (stereo not drawn) [Example 98, N-(2-(5-fluoro-2-(3-((1-methylpiperidin-3-yl)methoxy)phenylamino)pyrimidin-4-ylamino)phenyl)methanesulfonamide]
6.00 to 7.00 | 6.00 to 7.00 | CS(=O)(=O)Nc1ccccc1Nc1nc(Nc2cccc(OCCN3CCOCC3)c2)ncc1F [Example 77, N-(2-(5-fluoro-2-(3-(2-morpholinoethoxy)phenylamino)pyrimidin-4-ylamino)phenyl)methanesulfonamide]
> 7.00 | > 7.00 | CS(=O)(=O)Nc1ccccc1Nc1nc(Nc2cccc(OCCN3CCCCC3)c2)ncc1Cl [Example 124, N-(2-(5-chloro-2-(3-(2-(piperidin-1-yl)ethoxy)phenylamino)pyrimidin-4-ylamino)phenyl)methanesulfonamide]
> 7.00 | 6.00 to 7.00 | CCOc1cc(Nc2ncc(F)c(Nc3cccc(C)c3NS(C)(=O)=O)n2)cc(OC)c1OC [Example 117, N-(2-(2-(3-ethoxy-4,5-dimethoxyphenylamino)-5-fluoropyrimidin-4-ylamino)-6-methylphenyl)methanesulfonamide]
> 7.00 | > 7.00 | COc1ccc(Nc2ncc(Br)c(Nc3ccccc3NS(C)(=O)=O)n2)cc1OC [Example 107, N-(2-(5-bromo-2-(3,4-dimethoxyphenylamino)pyrimidin-4-ylamino)phenyl)methanesulfonamide]
5.00 to 6.00 | 6.00 to 7.00 | COc1cc(Nc2ncc(F)c(Nc3ccccc3NS(=O)(=O)c3cccs3)n2)cc(OC)c1OC [Example 50, N-(2-(5-fluoro-2-(3,4,5-trimethoxyphenylamino)pyrimidin-4-ylamino)phenyl)thiopehene-2-sulfonamide]
6.00 to 7.00 | 6.00 to 7.00 | CS(=O)(=O)Nc1ccccc1Nc1nc(Nc2ccc(OCCCN3CCCCC3)cc2)ncc1F [Example 90]
> 7.00 | > 7.00 | CS(=O)(=O)Nc1ccccc1Nc1nc(Nc2cccc(OCCN3CCCCC3)c2)ncc1F [Example 79, N-(2-(5-fluoro-2-(3-(2-(piperidin-1-yl)ethoxy)phenylamino)pyrimidin-4-ylamino)phenyl)methanesulfonamide formate]
6.00 to 7.00 | > 7.00 | CS(=O)(=O)Nc1ccccc1Nc1nc(Nc2cccc(OCCN3CCCC3=O)c2)ncc1Cl [Example 130, N-(2-(5-chloro-2-(3-(2-(2-oxopyrrolidin-1-yl)ethoxy)phenylamino)pyrimidin-4-ylamino)phenyl)methanesulfonamide]
6.00 to 7.00 | 6.00 to 7.00 | CCOc1ccc(Nc2nc(Nc3cc(OC)c(OC)c(OC)c3)ncc2F)c(NS(C)(=O)=O)c1C [Example 168, N-(3-ethoxy-6-(5-fluoro-2-(3,4,5-trimethoxyphenylamino)pyrimidin-4-ylamino)-2-methylphenyl)methanesulfonamide]
6.00 to 7.00 | 6.00 to 7.00 | COc1cc(Nc2ncc(F)c(Nc3ccccc3NS(C)(=O)=O)n2)cc(OC)c1OC [Example 1, N-(2-(5-fluoro-2-(3,4,5-trimethoxyphenylamino)pyrimidin-4-ylamino)phenyl)methanesulfonamide]
6.00 to 7.00 | > 7.00 | CCN(CC)C(=O)COc1cccc(Nc2ncc(Cl)c(Nc3ccccc3NS(C)(=O)=O)n2)c1 [Example 150, 2-(3-(5-chloro-4-(2-(methylsulfonamido)phenylamino)pyrimidin-2-ylamino)phenoxy)-N,N-diethylacetamide]
5.00 to 6.00 | 6.00 to 7.00 | CS(=O)(=O)Nc1ccccc1Nc1nc(Nc2cccc(-n3cncn3)c2)ncc1F [Example 21, N-(2-(2-(3-(1H-1,2,4-triazol-1-yl)phenylamino)-5-fluoropyrimidin-4-ylamino)phenyl)methanesulfonamide]
6.00 to 7.00 | > 7.00 | CCN(c1ccccc1Nc1nc(Nc2ccc(OCCN3CCCCC3)cc2)ncc1F)S(C)(=O)=O [Example 158, N-ethyl-N-(2-(5-fluoro-2-(4-(2-(piperidin-1-yl)ethoxy)phenylamino)pyrimidin-4-ylamino)phenyl)methanesulfonamide]
6.00 to 7.00 | 6.00 to 7.00 | COc1cccc(Nc2nc(Nc3cc(OC)c(OC)c(OC)c3)ncc2F)c1NS(C)(=O)=O [Example 172, N-(2-(5-fluoro-2-(3,4,5-trimethoxyphenylamino)pyrimidin-4-ylamino)-6-methoxyphenyl)methanesulfonamide]
6.00 to 7.00 | 6.00 to 7.00 | CS(=O)(=O)Nc1ccccc1Nc1nc(Nc2ccc(OCCN3CCCC3)cc2)ncc1F [Example 96, N-(2-(5-fluoro-2-(4-(2-(pyrrolidin-1-yl)ethoxy)phenylamino)pyrimidin-4-ylamino)phenyl)methanesulfonamide]
5.00 to 6.00 | 6.00 to 7.00 | CNCCS(=O)(=O)Nc1ccccc1Nc1nc(Nc2cc(OC)c(OC)c(OC)c2)ncc1F [Example 62, N-(2-(5-fluoro-2-(3,4,5-trimethoxyphenylamino)pyrimidin-4-ylamino)phenyl)-2-(methylamino)ethanesulfonamide]
6.00 to 7.00 | > 7.00 | CN1CCCCC1COc1cccc(Nc2ncc(F)c(Nc3ccccc3NS(C)(=O)=O)n2)c1 (stereo not drawn) [Example 97, N-(2-(5-fluoro-2-(3-((1-methylpiperidin-2-yl)methoxy)phenylamino)pyrimidin-4-ylamino)phenyl)methanesulfonamide]
